PubChem BioAssay (NCI)
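These data come from cells grown in 96-well plates and exposed to compound for 48 hours at five concentrations. GI50 marks 50% less growth. TGI marks complete inhibition of growth.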

Columns and labels:
Experiment in all cases: DTP human tumour cell line panel, 48 h; in the data active means GI50 below about 0.43 µM; inactive means the rest
SK-MEL-5 melanoma = tested on: SK-MEL-5 melanoma
UACC-62 melanoma = tested on: UACC-62 melanoma
SF-268 CNS = tested on: SF-268 CNS
NCI-H23 lung = tested on: NCI-H23 lung
KM12 colon = tested on: KM12 colon
EKVX NSCLC = tested on: EKVX NSCLC
COLO 205 colon = tested on: COLO 205 colon
UO-31 renal = tested on: UO-31 renal
SNB-19 CNS = tested on: SNB-19 CNS
NCI-H226 lung = tested on: NCI-H226 lung
NCI/ADR-RES ovarian = tested on: NCI/ADR-RES ovarian
SK-MEL-28 melanoma = tested on: SK-MEL-28 melanoma
786-0 renal = tested on: 786-0 renal
HCC-2998 colon = tested on: HCC-2998 colon
HCT-15 colon = tested on: HCT-15 colon
A498 renal = tested on: A498 renal
SK-OV-3 ovarian = tested on: SK-OV-3 ovarian
M14 melanoma = tested on: M14 melanoma
HOP-92 NSCLC = tested on: HOP-92 NSCLC
LOX IMVI melanoma = tested on: LOX IMVI melanoma
CAKI-1 renal = tested on: CAKI-1 renal
SR leukemia = tested on: SR leukemia
MCF7 breast = tested on: MCF7 breast
SNB-75 CNS = tested on: SNB-75 CNS
SK-MEL-2 melanoma = tested on: SK-MEL-2 melanoma
U251 CNS = tested on: U251 CNS
MDA-MB-435 = tested on: MDA-MB-435
DU-145 prostate = tested on: DU-145 prostate
A549 NSCLC = tested on: A549 NSCLC
HS 578T breast = tested on: HS 578T breast
IGROV1 ovarian = tested on: IGROV1 ovarian
SF-539 CNS = tested on: SF-539 CNS
ACHN renal = tested on: ACHN renal
HCT-116 colon = tested on: HCT-116 colon
SW-620 colon = tested on: SW-620 colon
NCI-H460 lung = tested on: NCI-H460 lung
TK-10 renal = tested on: TK-10 renal
NCI-H522 lung = tested on: NCI-H522 lung
MOLT-4 leukemia = tested on: MOLT-4 leukemia
SN12C renal = tested on: SN12C renal
BT-549 breast = tested on: BT-549 breast
OVCAR-8 ovarian = tested on: OVCAR-8 ovarian
MALME-3M melanoma = tested on: MALME-3M melanoma
OVCAR-4 ovarian = tested on: OVCAR-4 ovarian
RXF 393 renal = tested on: RXF 393 renal
OVCAR-5 ovarian = tested on: OVCAR-5 ovarian
OVCAR-3 ovarian = tested on: OVCAR-3 ovarian
HOP-62 NSCLC = tested on: HOP-62 NSCLC
K-562 leukemia = tested on: K-562 leukemia
MDA-MB-231 breast = tested on: MDA-MB-231 breast
CCRF-CEM leukemia = tested on: CCRF-CEM leukemia
T-47D breast = tested on: T-47D breast
RPMI-8226 leukemia = tested on: RPMI-8226 leukemia
UACC-257 melanoma = tested on: UACC-257 melanoma
HT29 colon = tested on: HT29 colon

Oc1c(Cl)cc(Cl)cc1/C=N/Nc1nnc(N/N=C/c2cc(Cl)cc(Cl)c2O)c2ccccc12
> 100 µM: TGI (SF-268 CNS) | TGI (NCI-H23 lung) | TGI (KM12 colon) | TGI (EKVX NSCLC) | TGI (COLO 205 colon) | TGI (UO-31 renal) | TGI (SNB-19 CNS) | TGI (NCI/ADR-RES ovarian) | TGI (SK-MEL-28 melanoma) | TGI (786-0 renal) | TGI (HCC-2998 colon) | TGI (HCT-15 colon) | TGI (A498 renal) | TGI (M14 melanoma) | TGI (SR leukemia) | TGI (MCF7 breast) | TGI (SK-MEL-2 melanoma) | TGI (DU-145 prostate) | TGI (A549 NSCLC) | TGI (HS 578T breast) | TGI (IGROV1 ovarian) | TGI (ACHN renal) | TGI (HCT-116 colon) | TGI (SW-620 colon) | TGI (TK-10 renal) | TGI (MOLT-4 leukemia) | TGI (SN12C renal) | TGI (BT-549 breast) | TGI (OVCAR-8 ovarian) | TGI (MALME-3M melanoma) | TGI (OVCAR-4 ovarian) | TGI (OVCAR-5 ovarian) | TGI (K-562 leukemia) | TGI (MDA-MB-231 breast) | TGI (T-47D breast) | TGI (RPMI-8226 leukemia) | TGI (UACC-257 melanoma) | TGI (HT29 colon)
2.26 µM: TGI (NCI-H460 lung)
active: GI50 (UACC-62 melanoma) 0.318 µM | GI50 (SF-268 CNS) 0.407 µM | GI50 (NCI-H23 lung) 0.406 µM | GI50 (KM12 colon) 0.335 µM | GI50 (NCI-H226 lung) 0.402 µM | GI50 (NCI/ADR-RES ovarian) 0.363 µM | GI50 (786-0 renal) 0.418 µM | GI50 (HCT-15 colon) 0.334 µM | GI50 (HOP-92 NSCLC) 0.284 µM | GI50 (LOX IMVI melanoma) 0.225 µM | GI50 (U251 CNS) 0.345 µM | GI50 (A549 NSCLC) 0.419 µM | GI50 (IGROV1 ovarian) 0.419 µM | GI50 (SF-539 CNS) 0.258 µM | GI50 (ACHN renal) 0.394 µM | GI50 (SW-620 colon) 0.416 µM | GI50 (NCI-H460 lung) 0.34 µM | GI50 (NCI-H522 lung) 0.366 µM | GI50 (MOLT-4 leukemia) 0.363 µM | GI50 (OVCAR-8 ovarian) 0.406 µM | GI50 (OVCAR-4 ovarian) 0.388 µM | GI50 (RXF 393 renal) 0.278 µM | GI50 (OVCAR-3 ovarian) 0.334 µM | GI50 (HOP-62 NSCLC) 0.388 µM | GI50 (K-562 leukemia) 0.372 µM | GI50 (CCRF-CEM leukemia) 0.275 µM | GI50 (RPMI-8226 leukemia) 0.405 µM
2.2 µM: TGI (SK-MEL-5 melanoma)
inactive: GI50 (SK-MEL-5 melanoma) 0.505 µM | GI50 (EKVX NSCLC) 0.429 µM | GI50 (COLO 205 colon) 0.433 µM | GI50 (UO-31 renal) 0.43 µM | GI50 (SNB-19 CNS) 0.505 µM | GI50 (SK-MEL-28 melanoma) 0.622 µM | GI50 (HCC-2998 colon) 0.469 µM | GI50 (A498 renal) 2.19 µM | GI50 (SK-OV-3 ovarian) 0.563 µM | GI50 (M14 melanoma) 0.434 µM | GI50 (CAKI-1 renal) 0.643 µM | GI50 (SR leukemia) 0.434 µM | GI50 (MCF7 breast) 0.482 µM | GI50 (SNB-75 CNS) 0.867 µM | GI50 (SK-MEL-2 melanoma) 0.77 µM | GI50 (MDA-MB-435) 0.484 µM | GI50 (DU-145 prostate) 0.715 µM | GI50 (HS 578T breast) 1.03 µM | GI50 (HCT-116 colon) 0.433 µM | GI50 (TK-10 renal) 0.704 µM | GI50 (SN12C renal) 0.543 µM | GI50 (BT-549 breast) 0.549 µM | GI50 (MALME-3M melanoma) 0.68 µM | GI50 (OVCAR-5 ovarian) 0.957 µM | GI50 (MDA-MB-231 breast) 0.479 µM | GI50 (T-47D breast) 0.506 µM | GI50 (UACC-257 melanoma) 1.44 µM | GI50 (HT29 colon) 0.595 µM
0.64 µM: TGI (SF-539 CNS)
> 28.8 µM: TGI (HOP-62 NSCLC)
> 30.9 µM: TGI (MDA-MB-435)
6.7 µM: TGI (NCI-H522 lung)
1.71 µM: TGI (UACC-62 melanoma)
0.586 µM: TGI (LOX IMVI melanoma)
18.2 µM: TGI (OVCAR-3 ovarian)
> 31.1 µM: TGI (SNB-75 CNS)
0.798 µM: TGI (RXF 393 renal)
3.04 µM: TGI (NCI-H226 lung)
> 81.7 µM: TGI (SK-OV-3 ovarian)
> 52.6 µM: TGI (U251 CNS)
